# Legend:
# CD22 = CD22 cell surface expression after chidamide treatment, flow cytometry; format: cell-based; details: chidamide 0.25 or 0.5 µM for 7 days; Ramos, TMD8, and SU-DHL-4 cell lines
# Description: (§1) Chidamide (Selleckchem) was dissolved in dimethyl sulfoxide (DMSO) according to the manufacturer's instructions. Cells were treated with chidamide (0.25 or 0.5 µM) for 7 days at 37°C in a 5% carbon dioxide-gassed, humidified incubator. On day 3, cells were centrifuged, and fresh medium containing the corresponding concentrations of chidamide was added. The control group was treated with equal volumes of DMSO.
# CD22 cell surface expression after chidamide treatment was measured by flow cytometry. hLL2-C220 and B12 antibodies, followed by Alexa Fluor 488 anti-human secondary antibodies (Life Technologies, Thermo Fisher Scientific) or allophycocyanin anti-human secondary antibodies (BioLegend), were used for CD22 detection. Cells were analyzed using a CytoFLEX Flow Cytometer (Beckman Coulter), and data were analyzed with FlowJo software version 10.8.1 (BD Biosciences).
# GCB-DLBCL = experiment: In vitro cytotoxic activity, lymphoma cell line panel: GCB-DLBCL; format: cell-based, human; details: 20 cell lines, read-out: Median IC50
# [1] = system: Ramos, TMD8, and SU-DHL-4 cell lines; experiment: In vitro cytotoxicity following pretreatment with chidamide; format: cell-based; details: pretreatment with chidamide (0.25 or 0.5 µM) for 7 days, then ADC for 5 days
# Description: as §1
# Cell viability was measured with the CellTiter 96 Aqueous One Solution Cell Proliferation Assay (Promega). Data were normalized to untreated control cells. The IC50 values were determined using GraphPad software (GraphPad). The mean and standard errors of 3 independent IC50 values were determined.
# CLL = experiment: In vitro cytotoxic activity, lymphoma cell line panel: CLL; format: cell-based, human; details: 2 cell lines, read-out: Median IC50
# ALCL = experiment: In vitro cytotoxic activity, lymphoma cell line panel: ALCL; format: cell-based, human; details: 5 cell lines, read-out: Median IC50
# Daudi = experiment: In vitro cytotoxicity, Daudi; format: cell-based, human; details: Daudi (BL), CD22-positive; mean ± SEM
# MCL = experiment: In vitro cytotoxic activity, lymphoma cell line panel: MCL; format: cell-based, human; details: 10 cell lines, read-out: Median IC50
# KARPAS-299 [2] = experiment: DNA interstrand crosslinks, single cell gel electrophoresis (Comet) assay, KARPAS-299; format: cell-based, human; details: KARPAS-299 (CD22-negative), over 48 hours following a 2-hour treatment
# Description: (§2) Quantification of in vitro DNA interstrand crosslinks (ICLs) was performed using the single cell gel electrophoresis (Comet) assay.
# (§3) DNA ICLs were measured using a modification of the single-cell gel electrophoresis (Comet) assay, and crosslinking was expressed as the percentage decrease in Olive tail moment (OTM) versus control irradiated cells. […] Immediately after the drug incubation period, a low level of ICLs (3%) was observed, which increased over time to near peak levels (≈50%) at 12 hours and persisted up to 48 hours. […] In this cell line, SG3199 produced a high level of ICL (≈50%), similar to that observed in the Ramos cell line.
# KARPAS-299 [3] = experiment: In vitro cytotoxicity, KARPAS-299; format: cell-based, human; details: KARPAS-299 (ALCL), CD22-negative; mean ± SEM
# KM-H2 = experiment: In vitro cytotoxicity, KM-H2; format: cell-based, human; details: KM-H2 (HL), CD22-negative; mean ± SEM
# NAMALWA = experiment: In vitro cytotoxicity, NAMALWA; format: cell-based, human; details: NAMALWA (BL), CD22-positive; mean ± SEM
# SUP-T1 = experiment: In vitro cytotoxicity, SUP-T1; format: cell-based, human; details: SUP-T1 (T-LL), CD22-negative; mean ± SEM
# HL = experiment: In vitro cytotoxic activity, lymphoma cell line panel: HL; format: cell-based, human; details: 3 cell lines, read-out: Median IC50
# MZL = experiment: In vitro cytotoxic activity, lymphoma cell line panel: MZL; format: cell-based, human; details: 6 cell lines, read-out: Median IC50
# Ramos cells = experiment: DNA interstrand crosslinks, single cell gel electrophoresis (Comet) assay, Ramos; format: cell-based, human; details: 2-hour exposure
# Description: as §2, §3
# GRANTA-519 = experiment: In vitro cytotoxicity, GRANTA-519; format: cell-based, human; details: GRANTA-519 (MCL), CD22-positive; mean ± SEM
# Ramos = experiment: In vitro cytotoxicity, Ramos; format: cell-based, human; details: Ramos (BL), CD22-positive; mean ± SEM
# PMBCL = experiment: In vitro cytotoxic activity, lymphoma cell line panel: PMBCL; format: cell-based, human; details: 1 cell line, read-out: Median IC50
# MEC-2 = experiment: In vitro cytotoxicity, MEC-2; format: cell-based, human; details: MEC-2 (CLL), CD22-positive; mean ± SEM
# [4] = system: CD22-negative KARPAS-299 cells; experiment: Bystander killing by conditioned medium transfer; format: cell-based, human; details: for percentage survival of KARPAS-299 cells: 96 hours incubation
# Description: The ADCT-602-conditioned medium elicited a bystander effect after 1 day of pretreatment, as shown by a decrease in the percentage survival in the conditioned medium-treated KARPAS-299 cells, compared with the nonconditioned medium (97% to 78%, P = .001). The bystander effect increased after 2 to 3 days of preincubation in Ramos cells, as shown by a further decrease in the percentage of cell survival compared with the nonconditioned medium (66% and 62%, P < .0001).
# WSU-DLCL2 xenograft = experiment: SC WSU-DLCL2 xenograft model; format: in vivo, mice
# From the text: (§4) Ramos, WSU-DLCL2, and KARPAS-299 xenografts were established in 8- to 10-week-old female Fox Chase mice with severe combined immunodeficiency (Charles River Laboratories) by implanting 10^7 cells subcutaneously (SC) into their flanks. When group mean tumor volumes reached approximately 116 to 132 mm^3, mice were randomly allocated into groups to receive the test agent or vehicle. Each animal was euthanized when its tumor reached the end point volume or at the study end. The time to end point (TTE) for analysis was calculated for each mouse by the following equation: TTE (days) = ([log10(end point volume−intercept^(*)]/slope^(*)) [formula] where the * indicates the slope of the line obtained by linear regression of a log-transformed tumor growth data set.
# (§5) The log-rank test was used to analyze the significance of differences in TTE between the 2 groups. For the disseminated xenografts model, 10^7 REH cells were inoculated intravenously (IV) into 5- to 8-week-old female NOG mice (Taconic Biosciences). Test compounds were administered IV 4 days after tumor cell inoculation. Individual mice were euthanized, and an autopsy was performed when hind leg paralysis (a sign of leukemia development) occurred and/or the body weight decreased ≥20%. The study was terminated on day 62. The log-rank test was used to determine the significance of the differences in overall survival.
# REH = experiment: In vitro cytotoxicity, REH; format: cell-based, human; details: REH (B-ALL), CD22-positive; mean ± SEM
# KARPAS-299 xenograft = experiment: SC KARPAS-299 xenograft model (CD22-negative); format: in vivo, mice; details: single 1 mg/kg dose; end of the study (day 29)
# From the text: as §4, §5
# PTCL-NOS = experiment: In vitro cytotoxic activity, lymphoma cell line panel: PTCL-NOS; format: cell-based, human; details: 1 cell line, read-out: Median IC50
# Ramos xenograft = experiment: SC Ramos xenograft; format: in vivo, mice
# From the text: as §4, §5
# B cells = experiment: B-cell depletion from circulation; format: in vivo; details: cynomolgus monkeys, after one ADCT-602 dose
# DO HH-2 = experiment: In vitro cytotoxicity, DO HH-2; format: cell-based, human; details: DO HH-2 (FL), CD22-positive; mean ± SEM
# ABC-DLBCL = experiment: In vitro cytotoxic activity, lymphoma cell line panel: ABC-DLBCL; format: cell-based, human; details: 6 cell lines, read-out: Median IC50
# T-cell lymphomas = experiment: In vitro cytotoxic activity, lymphoma cell line panel: T-cell lymphomas; format: cell-based, human; details: 9 cell lines, read-out: Median IC50
# B-cell lymphomas = details: read-out: Median IC50, 48 cell lines
# CTCL = experiment: In vitro cytotoxic activity, lymphoma cell line panel: CTCL; format: cell-based, human; details: 3 cell lines, read-out: Median IC50
# REH cells = experiment: Disseminated B-ALL-derived xenograft model (REH); format: in vivo, mice
# Description: as §5
# NALM-6 = experiment: In vitro cytotoxicity, NALM-6; format: cell-based, human; details: NALM-6 (B-ALL), CD22-positive; mean ± SEM
# [5] = system: CD22-expressing Ramos cells; experiment: Cell surface binding, internalization and LAMP-1 colocalization; format: cell-based, human
# SEM cells = experiment: In vitro cytotoxicity, SEM; format: cell-based, human; details: SEM (B-ALL), CD22-positive; mean ± SEM
# [6] = single dose 3 mg/kg, end of the study (day 59)
# [7] = single dose 1 mg/kg, end of the study (day 60)
compound,measurement,setting,value
Nc1cc(F)ccc1NC(=O)c1ccc(CNC(=O)/C=C/c2cccnc2)cc1 [chidamide],increase of CD22 expression compared with DMSO-treated cells (MFI fold change),CD22,up to 2.4 times
"ADCT-602: novel ADC targeting CD22 that consists of humanized monoclonal antibody hLL2-C220, sitespecifically conjugated to the pyrrolobenzodiazepine (PBD) dimer-based payload tesirine",IC50,GCB-DLBCL,100 pM
same,improvement of ADCT-602 IC50 compared with cells pretreated with DMSO,[1],up to 2.5 fold
same,IC50,CLL,230 pM
same,IC50,ALCL,2850 pM
same,IC50,Daudi,0.07 ± 0.021 nM
same,IC50,MCL,375 pM
same,"DNA ICLs, percentage decrease in Olive tail moment (OTM) versus control irradiated cells",KARPAS-299 [2],≈ 15%
same,IC50,KARPAS-299 [3],51.7 ± 3.86 nM
same,IC50,KM-H2,11.4 ± 1.11 nM
same,IC50,NAMALWA,2.27 ± 0.052 nM
same,IC50,SUP-T1,9.34 ± 1.02 nM
same,IC50,HL,4500 pM
same,IC50,MZL,62.5 pM
same,"DNA ICLs, percentage decrease in Olive tail moment (OTM) versus control irradiated cells",Ramos cells; immediately after the drug incubation period,3%
same,"DNA ICLs, percentage decrease in Olive tail moment (OTM) versus control irradiated cells",Ramos cells; peak / near peak level at 12 hours,≈ 50%
same,IC50,GRANTA-519,0.02 ± 0.0005 nM
same,IC50,Ramos,0.06 ± 0.021 nM
same,IC50,PMBCL,35 pM
same,IC50,MEC-2,0.18 ± 0.05 nM
same,change in percentage of cell survival compared with the nonconditioned medium,"[4]; conditioned medium from ADCT-602-treated, CD22-negative NCI-N87 cells",no significant change
same,percentage survival of KARPAS-299 cells,[4]; conditioned medium from Ramos cells treated with ADCT-602 for 1 day,78%
same,percentage survival of KARPAS-299 cells,[4]; conditioned medium from Ramos cells treated with ADCT-602 for 2 days,66%
same,percentage survival of KARPAS-299 cells,[4]; conditioned medium from Ramos cells treated with ADCT-602 for 3 days,62%
same,percentage survival of KARPAS-299 cells,"[4]; nonconditioned medium, comparator for 1 day pretreatment",97%
same,CRs,WSU-DLCL2 xenograft; [6],7/10
same,partial responders,WSU-DLCL2 xenograft; [6],3/10
same,tumor-free survivors,WSU-DLCL2 xenograft; [6],2/10
same,antitumor activity compared with the vehicle and the isotype control ADC,WSU-DLCL2 xenograft; single dose at 1 and 3 mg/kg,dose-dependent antitumor activity
same,IC50,REH,0.05 ± 0.006 nM
same,antitumor activity compared with the vehicle group,KARPAS-299 xenograft,no significant antitumor activity
same,IC50,PTCL-NOS,700 pM
same,CRs,Ramos xenograft; [7],10/10
same,tumor-free survivors,Ramos xenograft; [7],9/10
same,antitumor activity compared with the vehicle and the isotype control ADC,Ramos xenograft; single dose at 0.3 and 1 mg/kg,specific and dose-dependent antitumor activity
same,depletion of B cells from circulation,B cells,efficiently depleted
same,IC50,DO HH-2,0.06 ± 0.009 nM
same,IC50,ABC-DLBCL,395 pM
same,IC50,T-cell lymphomas,1850 pM
same,IC50,B-cell lymphomas,200 pM
same,IC50,CTCL,1750 pM
same,"survival time, single dose versus equivalent fractionated dose","REH cells; single 1.3 mg/kg versus 0.45 mg/kg, every 4 days, for 3 times [Q4D×3]",comparable survival time
same,survival compared with the vehicle and the isotype control ADC,REH cells; single dose at 0.45 mg/kg and 1.3 mg/kg IV,dose-dependent extension of survival
same,IC50,NALM-6,0.11 ± 0.018 nM
same,internalization and trafficking to lysosomes,"[5]; 37°C, 1- and 2-hour time points",cellular internalization and colocalization of ADCT-602 with LAMP-1
same,residual ADC staining,[5]; 24 hours,no residual ADC staining
same,cell surface (membrane) binding,[5]; T 0 hours,prominent cell surface binding
same,IC50,SEM cells,0.52 ± 0.08 nM

# Reference: patent publication EP4410314A1, “COMBINATION THERAPY COMPRISING ANTI-CD22 ANTIBODY-DRUG CONJUGATE AND IRAK1 INHIBITOR” (ADC Therapeutics SA, priority 2023, dated 2024)
